# How the values were obtained:
# [1] = test system: D1-Cre mice with +HTP or ddHTP in left dorsal striatum; assay: open-field turning (locomotor) assay, unilateral delivery to dSPNs of dorsal striatum; assay type: in vivo, mouse; conditions: for open-field turning, +HTP mice / open-field turning, ddHTP mice: 10:1 mixture with Alexa488.1DART.2 infused into left dorsal striatum
# Method: Mice: For behavioral experiments, mice strains included Drd1A-Cre (GENSAT EY262). For slice experiments, Drd1A-Cre were used. Mice were singly housed post-surgery, in a 12-hour reverse light cycle, with food and water provided ad libitum. Recombinant adeno-associated viral (rAAV) vectors.
# Behavioral assays: Assays were performed at least 3 weeks after viral injection to allow for recombinant protein expression. Mice were acclimated to head-fixation for 3 consecutive days prior to behavioral experiments. Reagents were infused into the brain via the cranial cannula. Immediately following infusion, mice were placed into open-field chambers (27 cm×27 cm) in the dark, and behavior was recorded using infrared video.
# These advances were combined in a mouse locomotor assay. AAV-DIO-^+HTPGPI or AAV-DIO-ddHTPGPI were expressed in the left dorsal striatum of D1-Cre mice, and implanted a unilateral cannula. Three weeks later, a baseline open-field behavior (saline infusion) was obtained; followed one week later by infusion of a 10:1 mixture of YM90K.1DART.2/Alexa488.1DART.2 (FIG. 3A). Mice were perfused for histology 24 hrs later, and quantitative measurement of the integrated Alexa capture over the dorsal striatum was performed. The magnitude of open-field turning vs dye capture (FIG. 3C) was then plotted A control was also performed as above using DART.1 and non-DART fluorescent dye (fluorogold) (FIG. 3B and FIG. 3D). Three points merit emphasis. […] Second, the data yielded a tight correlation between behavioral effects and histology; in particular the four animals with the weakest behavioral impact corresponded to those with little dye capture, providing an unbiased parameter with which to exclude these animals due to technical failure. Such a correlation was not seen with the original technology, despite efforts to estimate cannula patency with a non-DART fluorescent tracer. Third, in these behaving mice, YM90K.1DART.2 was substantially more efficacious than its predecessor, driving a 3-fold larger impact in a locomotor assay following unilateral delivery to dSPNs of the dorsal striatum (FIG. 3E and FIG. 3F). Experiments in acute striatal brain slice confirmed the performance boost afforded by DART.2. Low-dose, YM90K.1DART.2 produced rapid AMPAR antagonism on +HTP neurons, achieving half-block after only 5 min of a 0.3 µM dose. This represents a ˜10-fold acceleration in comparison to its predecessor, which required 15 min of a 1 µM dose to achieve a similar block. Neither reagent produced any measurable impact on −HTP or ddHTP neurons at these doses. However, only YM90K.1DART.2 offered kinetics fast enough for routine slice physiology experiments.
# AMPAR = assay: whole-mount retina, AMPAR-mediated evoked EPSC in retinal ganglion cells; assay type: cell-based, mouse; conditions: 300 nM, 15 min
# Method: (FIG. 6A) Viral strategy (top panel). […] Experimental overview (second panel from the top to bottom panel). Top: whole retina; synaptic current is evoked (stim) and recorded (voltage-clamp of dTomato+ RGC), with ionic and pharmaceutical conditions chosen to isolate the AMPAR or GABAAR. A 10 min baseline is followed by 15 min application of 300 nM Rx^DART.2+30 nM Alexa^647.1DART.2. […] (FIG. 6B) CMPDA.2^DART.2 (left). Electropositive spacer (PDB 3RNN). […] AMPAR structural model (middle) (composite of PDB 5WEO, 3RNN, and 1FTL). Cylinder depicts cell membrane. […] YM90K.1^DART.2 (right). Structural model (PDB 1FTL). […] (FIG. 6C) diazepam.1^DART.2 (left). Structural model (PDB 6HUP). […] GABAAR (middle) structural model (composite of PDB 6HUP and 6HUK). […] Structural model (PDB 6HUK).
# Preparation of Retina: Mice were intravitreal injected AAV10 HaloTag™-dTomato to eyes. After 8-12 weeks, the mice killed by cervical dislocation. Both eyes were removed and dissected under a stereo-microscope. Retinas were isolated from the eyecups and placed in oxygenated (95% O2/5% CO2) cold-Ames medium (Sigma-Aldrich), supplemented with 21 mM NaHCO3. After the vitreous body was removed, a retina was cut into 3 pieces, leaving each retina piece attached to a filter paper with 2 mm hole by retina ganglion-cell-side-down. The pieces of retina were stored in bubbled Ames solution at room temperature, then transferred to recording chamber with retina ganglion-cell-side-up for recording.
# Whole-cell patch-clamp recording: The brain slices or retinas were perfused with bubbled aCSF at 29-30° C. with a 2 ml/min flow rate. Recordings were made by whole cell patch recording techniques using a Multiclamp 700B amplifier (Molecular Devices, Axon Instruments Inc., Union City, CA). The signals were filtered at 10 KHz and acquired using Digitate 1440A and pClamp 10.7 (Molecular Devices). The recording pipettes (4 MΩ-6 MΩ) were filled with internal solutions. For GABAA receptor-mediated evoked inhibitory postsynaptic currents ([…]) recording, the pipettes filled with Cesium Chloride-based internal solution (in mM) 135 CsCl, 2 MgCl2, 0.5 EGTA, 10 HEPES, 4 Mg-ATP, 0.5 Na-GTP, 10 Na2-phosphocreatine, and QX314 (lidocaine N-ethyl bromide), pH adjusted to 7.3 with CsOH (290 mosm). For AMPA-receptor mediated evoked excitatory postsynaptic currents (eEPSCs) recording, the pipette solution contained (in mM) 130 CsMeS, 1 MgCl2, 0.5 EGTA, 10 HEPES, 4 Mg-ATP, 0.5 Na-GTP, 10 Na2-phosphocreatine, and 4 QX314, pH adjusted to 7.3 with CsOH (290 mosm). For experiment of brain slices and retinas, the eIPSCs or eEPSCs were elicited by electrical stimuli at 0.067 Hz in 0.3-ms duration and 150-300-ρA (60-70% maximum responses) stimulation intensity at a holding potential of −70 mV. The stimulating electrode was placed within 60-100 μm from the recording neuron under voltage-clamp mode. GABA-receptor mediated eIPSCs were isolated in the presence of DNQX ([…] AMPAR antagonist) and AP-V ([…] antagonist) in the bath solution. For AMPA-receptor mediated eEPSCs, added picrotoxin ([…], GABAAR antagonist) and AP-V ([…]) to the bath solution.
compound,measurement,setting,value
COc1cc(CCCCl)ccc1CCOCCNC(=O)c1ccc(CNC(=O)CCOCCOCCOCCOCCOCCOCCOCCOCCOCCOCCOCCOCCOCCOCCOCCOCCOCCOCCOCCOCCOCCOCCOCCOCCOCCOCCOCCOCCOCCOCCOCCOCCOCCOCCOCCOCCn2cc(COCCOCCOCCOCCOCCOCCNC(=O)CCCn3c(=O)c(=O)[nH]c4cc([N+](=O)[O-])c(-n5ccnc5)cc43)nn2)cc1 [YM90K.1DART.2],"open-field turning, +HTP mice",[1],a turning bias in +HTP mice was seen
same,"open-field turning, ddHTP mice",[1],no turning bias
same,"open-field turning, +HTP mice",[1]; listed as YM90K.1^DART.2,turned in proportion to dye capture
same,"open-field turning, ddHTP mice",[1]; listed as YM90K.1^DART.2,little turning
same,impact in locomotor assay / behavioral potency in comparison to predecessor,[1]; unilateral delivery to dSPNs of the dorsal striatum,3 fold
same,"AMPAR evoked EPSC block, +HTP cells",AMPAR,blocked the AMPAR-mediated EPSC
same,"AMPAR evoked EPSC block, +HTP cells",AMPAR; listed as YM90K.1^DART.2,blocked on ^+HTP cells

# — patent publication US20250213700A1, “COMPOUNDS, COMPOSITIONS, AND METHODS FOR CELL-SPECIFIC PHARMACOLOGY” (Duke University, priority 2022, published 2025)
